Test results reported in patent publication US20210347823A1, “METHODS OF PHYSICOCHEMICAL-GUIDED PEPTIDE DESIGN AND NOVEL PEPTIDES DERIVED THEREFROM” (Massachusetts Institute of Technology, priority 2018, published 2021).
Entries after “also recorded” stand apart in the source; their conditions may differ.

Key:
[1] = tested on: P. aeruginosa strain PA14; experiment: MIC assay (broth microdilution) against P. aeruginosa PA14; assay type: cell-based, Pseudomonas aeruginosa; conditions: P. aeruginosa PA14, 24 h, 37° C.
Source text: (§1) FIGS. 2A-2E. Design, physicochemical features and activity of Pol-CP—NH2 and Ala-scan analogs. FIG. 2A. Theoretical physicochemical properties of interest of the wild type and Ala-scan analogs, where H denotes hydrophobicity, μH is the hydrophobic moment, q represents the net charge and P/N is the ratio of polar/non-polar residues in the sequence. Top to bottom, left to right the sequences correspond to SEQ ID NOs: 1-13. FIG. 2B. Schematic of the in vitro biological activity experimental design. Briefly, 10^4 bacterial cells and serially diluted peptides (0-128 μmol L^−1) were added to a 96-well plate and incubated at 37° C. One day after the exposure, the solution in each well was measured in a microplate reader (600 nm) to check inhibition of bacteria compared to the untreated controls and presented as heat maps of antimicrobial activities (μmol L^−1) against four bacteria strains: E. coli strain BL21, S. aureus strain ATCC12600 and P. aeruginosa strains PA01, and PA14. Assays were performed in triplicates. FIG. 2C. Graph correlating MIC (μmol L^−1) averages vs H and (FIG. 2D) MIC (μmol L^−1) averages vs μH, where dots […] the dashed line show peptides with higher activity compared to the wild type, in which one can observe ranges of optimal activity in determined intervals of H and μH values. FIG. 2E. […]

[2] = tested on: S. aureus strain ATCC12600; experiment: MIC assay (broth microdilution) against S. aureus ATCC12600; assay type: cell-based, Staphylococcus aureus; conditions: S. aureus ATCC12600, 24 h, 37° C.
Source text: as §1

[3] = tested on: P. aeruginosa strain PA14; experiment: Scarification skin infection mouse model; assay type: in vivo, female CD-1 mice
Experimental: FIGS. 8A-8D. In vivo activity of Pol-CP—NH2 and its analogs. FIG. 8A. Schematic of the experimental design. Briefly, the back of mice was shaved and an abrasion was generated to damage the stratum corneum and the upper layer of the epidermis. Subsequently, an aliquot of 50 μL containing 5×10^7 CFU of P. aeruginosa in PBS was inoculated over each defined area. One day after the infection, peptides (4 μmol L^−1) were administered to the infected area. Animals were euthanized and the area of scarified skin was excised two and four days post-infection (FIG. 8B) homogenized using a bead beater for 20 minutes (25 Hz), and serially diluted for CFU quantification (****p<0.0001). FIG. 8C. Mouse body weight measurements throughout the experiment normalized by the body weight of non-infected mice. […] FIG. 8D. Longer experiment (four days) using a higher concentration (64 μmol L^−1) of peptides Pol-CP—NH2 and [Lys]'-Pol-CP—NH2 (****p<0.0001).
Scarification Skin Infection Mouse Model. P. aeruginosa strain PA14 was grown to an optical density at 600 nm (OD600) of 1 in tryptic soy broth (TSB) medium. […] Animals were euthanized and the area of scarified skin was excised two and four days post-infection, homogenized using a bead beater for 20 minutes (25 Hz), and serially diluted for CFU quantification. […] Statistical significance was assessed using a one-way ANOVA.

Substance	MIC [1] [µM]	MIC [2] [µM]	in vivo anti-infective activity (CFU) ([3]; 64 μmol L^−1, four days, listed as [Lys]^7-Pol-CP—NH2)	in vivo antimicrobial activity (bacterial load, CFU) ([3]; single dose of 4 μmol L^−1 one day after infection)
H-ILGTILGLLKSL-NH2 [WT, ILGTILGLLKSL-NH2, reference compound]	64.0	64.0		
H-ILGTILKLLKSL-NH2 [Peptide 16, ILGTILKLLKSL-NH2]			nearly sterilized the infection; also recorded: virtually sterilizing abscess infections	most active
